Laboratory results taken from patent US9636409B2, “Enzyme and receptor modulation using covalent conjugates of alpha,alpha-disubstituted glycine esters” (GlaxoSmithKline Intellectual Property Development Limited, priority 2008, dated 2017).
Like-named read-outs stand apart in the source and are kept apart here.

Key:
[1] = test system: phosphorylation of MAPKAP-2 in HUT 78 cells; experiment: p38 MAP Kinase cellular assay: inhibition of phosphorylation of MAPKAP2 in HUT 78 cells; type: cell-based; settings: for IC50: Homo sapiens, HuT78, HUT 78 non-monocyte cell line; for Ratio IC50s in HUT 78 to U937 cells: MAPKAP-2 phosphorylation IC50s
Procedure: (§1) p38 MAP Kinase Cellular Assay: Inhibition of Phosphorylation of MAPKAP2
(§2) U937 or HUT78 cells were plated in RPMI 1640, and were incubated at 37° C., 5% CO2 for 18 hours. 10 mM stocks of compounds were diluted media/0.1% DMSO to give a log or semi-log dilution series. The wells for ‘no treatment’ and ‘anisomycin’ were treated with 0.1% DMSO only. The cells were incubated at 37° C., 5% CO2 for a further 4 hours. Anisomycin was added to all wells except ‘no treatment’ at a final concentration of 10 μM. The cells were incubated at 37° C., 5% CO2 for 30 minutes before harvest. Plates were stood on ice whilst harvesting, and all following steps were carried out at 4° C. The cells were pelleted at 1000 rpm for 10 minutes at 4° C., the media aspirated, and the pellet washed with cold PBS. The pellets were lysed in 120 μl of SDS lysis buffer (62.5 mM Tris, pH 6.8, 2% SDS, 10% glycerol, 50 mM DTT, with protease inhibitors and phosphatase inhibitors added according to the manufacturers' recommendations). After 30 minutes on ice, the samples were sonicated for 5 seconds before centrifugation at 13,000 rpm 4° C. for 10 minutes to remove cell debris. 10 μl of the resulting gel samples were loaded per lane on NOVEX 4-12% Bis-Tris MOPS gels. Membranes from western transfer of gels were blotted with anti-phospho MAPKAP2, anti-phospho HSP27 and anti GAPDH according to the manufacturers' Instructions. Signal was visualised using HRP-Hnked anti-rabbit or anti-mouse antibodies, ECL reagent and ECL film. IC50 values for the various compounds were visualised from the resulting photographic images, using both band-shift and signal intensity.

[2] = test system: phosphorylation of MAPKAP-2 in U937 cells; experiment: p38 MAP Kinase cellular assay: inhibition of phosphorylation of MAPKAP2 in U937 cells; type: cell-based; settings: for IC50: Homo sapiens, U-937; for potency in monocytic versus non monocytic cell lines (MAPKAP-2 phosphorylation): U937 versus HUT 78
Procedure: as §1, §2

U937 cells = experiment: U937 cell inhibition assay (WST-1 proliferation); type: cell-based; settings: for Ratio cell IC50s to enzyme IC50: U937 proliferation IC50 to HDAC enzyme IC50; for potency in the cellular (U937 proliferation) assay compared with the parent compound: versus Compound IV
Procedure: (§3) U937 and HUT Cell Inhibition Assay
(§4) Cancer cell lines (U937 and HUT) growing in log phase were harvested and seeded at 1000-2000 cells/well (100 μl final volume) into 96-well tissue culture plates. Following 24 hours of growth cells were treated with compound. Plates were then re-Incubated for a further 72-96 hours before a WST-1 cell viability assay was conducted according to the suppliers (Roche Applied Science) instructions.
(§5) Data were expressed as a percentage inhibition of the control, measured in the absence of Inhibitor, as follows: % inhibition=100−[(S^i/S^o)×100] where S^i is the signal in the presence of Inhibitor and S^o s the signal in the presence of DMSO.
(§6) Dose response curves were generated from 8 concentrations (top final concentration 10 μM, with 3-fold dilutions), using 6 replicates.
(§7) IC50 values were determined by non-linear regression analysis, after fitting the results to the equation for sigmoidal dose response with variable slope (% activity against log concentration of compound), using Graphpad Prism software.

HUT 78 cells = experiment: HUT cell inhibition assay (WST-1 proliferation); type: cell-based; settings: Table 5; for IC50: HUT 78 cells; for Ratio IC50s in HUT 78 to U937 cells: proliferation IC50s
Procedure: as §3, §4, §5, §6, §7

[3] = target: histone deacetylase activity (HeLa nuclear extract); experiment: Histone deacetylase activity (Fluor de Lys, HeLa nuclear extract); type: biochemical; settings: read-out: Inhibition of HDAC (IC50 nM)
Procedure: Histone Deacetylase Activity
The ability of compounds to inhibit histone deacetylase activities was measured using the commercially available HDAC fluorescent activity assay from Biomol. In brief, the Fluor de Lys™ substrate, a lysine with an epsilon-amino acetylation, is incubated with the source of histone deacetylase activity (HeLa nuclear extract) in the presence or absence of inhibitor. Deacetylation of the substrate sensitises the substrate to Fluor de Lys™ developer, which generates a fluorophore. Thus, incubation of the substrate with a source of HDAC activity results in an increase in signal that is diminished in the presence of an HDAC inhibitor.
Data are expressed as a percentage of the control, measured in the absence of inhibitor, with background signal being subtracted from all samples, as follows: % activity=[(S^i−B)/(S^o−B)]×100 where S^i is the signal in the presence of substrate, enzyme and Inhibitor, S^o is the signal in the presence of substrate, enzyme and the vehicle in which the inhibitor is dissolved, and B is the background signal measured in the absence of enzyme.
IC50 values were determined by non-linear regression analysis, after fitting the results of eight data points to the equation for sigmoidal dose response with variable slope (% activity against log concentration of Compound), using Graphpad Prism software.
Histone deacetylase activity from crude nuclear extract derived from HeLa cells was used for screening. The preparation, purchased from 4C (Seneffe, Belgium), was prepared from HeLa cells harvested whilst in exponential growth phase. The nuclear extract was prepared according to the methodology described by J. D. Dignam, Nucl. Acid. Res., 1983, 11, 1475-1489, snap frozen in liquid nitrogen and stored at −80° C. The final buffer composition was 20 mM Hepes, 100 mM KCl, 0.2 mM EDTA, 0.5 mM DTT, 0.2 mM PMSF and 20% (v/v) glycerol.

recombinant hCE-1 = target: T1, recombinant hCE-1 (Homo sapiens, UniProt P23141); experiment: HCE-1 carboxylesterase assay; type: in vitro ADME; settings: result in words
T1 sequence (P23141 18-567): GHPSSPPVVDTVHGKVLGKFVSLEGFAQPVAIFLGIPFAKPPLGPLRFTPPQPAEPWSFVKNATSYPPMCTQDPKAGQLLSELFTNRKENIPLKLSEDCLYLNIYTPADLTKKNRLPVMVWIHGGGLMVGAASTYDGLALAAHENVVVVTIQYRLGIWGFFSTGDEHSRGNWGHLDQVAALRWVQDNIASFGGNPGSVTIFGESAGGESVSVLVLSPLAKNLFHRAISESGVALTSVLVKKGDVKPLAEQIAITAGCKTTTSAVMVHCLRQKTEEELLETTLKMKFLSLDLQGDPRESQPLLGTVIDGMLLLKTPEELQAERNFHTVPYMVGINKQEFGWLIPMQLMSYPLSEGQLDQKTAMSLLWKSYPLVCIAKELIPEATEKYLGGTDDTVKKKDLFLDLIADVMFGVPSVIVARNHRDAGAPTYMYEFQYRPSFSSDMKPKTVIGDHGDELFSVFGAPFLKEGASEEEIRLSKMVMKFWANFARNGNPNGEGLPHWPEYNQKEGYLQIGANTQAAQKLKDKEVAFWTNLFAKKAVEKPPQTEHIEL
Procedure: HCE-1 Carboxylesterase Assay
Hydrolysis of esters to the corresponding carboxylic acids by hCE-1 can be measured using the following procedure. At zero time, 100 μl of recombinant hCE-1 at a concentration of 6 μg/mL in phosphate assay buffer (K2PO4 100 mM, KCl 40 mM, pH 7.4) was added to an equal volume of assay buffer containing 5 μM ester substrate. After thorough mixing, triplicate samples were incubated for 0, 20 or 80 minutes at 37° C. At the appropriate time, hydrolysis was stopped by the addition of 600 μl of acetonitrile. For zero time samples, the acetonitrile was added prior to the enzyme. The samples were analysed for the ester and its corresponding carboxylic acid at room temperature by LCMS (Sciex API 3000, HP1100 binary pump, CTC PAL). Chromatography was based on a […] (75×2.1 mm) column and a mobile phase of 5-95% acetonitrile in water/0.1% formic add. Levels of the acid, the hydrolysis product, after 80 minutes are expressed in ng/mL.

p38 MAP Kinase α = target: T2, p38 MAP Kinase α (Homo sapiens, UniProt Q16539); experiment: p38 MAP Kinase enzyme assay; type: biochemical; settings: Table 1 (biology); compound as such, Ester for Example 1; read-out: Inhibition of P38 (IC50 nM)
T2 construct: purchased Upstate (Dundee UK)
Procedure: p38 MAP Kinase Enzyme Assay
The ability of compounds to inhibit p38 MAPα Kinase activity was measured in an assay performed by Upstate (Dundee UK). In a final reaction volume of 25 μL, p38 MAP Kinase α (5-10 mU) is incubated with 25 mM Tris pH 7.5, 0.02 mM EGTA, 0.33 mg/mL myelin basic protein, 10 mM MgAcetate and [γ-^33P-ATP](specific activity approx. 500 cpm/pmol, concentration as required). The reaction is initiated by the addition of the MgATP mix. After incubation for 40 minutes at room temperature, the reaction is stopped by the addition of 5 μL of a 3% phosphoric acid solution. 10 μL of the reaction is then spotted onto a P30 filtermat and washed three times for 5 minutes in 75 mM phosphoric acid and once in methanol prior to drying and scintillation counting.
Duplicate data points are generated from a 1/3 log dilution series of a stock solution in DMSO. Nine dilutions steps are made from a top concentration of […], and a ‘no compound’ blank is included. The standard radiometric filter-binding assay is performed at an ATP concentration at, or close to, the Km. Data from scintillation counts are collected and subjected to free-fit analysis by Prism software. From the curve generated, the concentration giving 50% inhibition is determined and reported.

[4] = Table 2, U937 monocyte cell line, read-out: Inhibition of phosphorylation of MAPKAP-2 in U937 cells (IC50, nM) (monocyte cell line)
[5] = Table 3, U937 monocyte cell line, read-out: Inhibition of phosphorylation of MAPKAP-2 in U937 cells (IC50, nM) (monocyte cell line)
[6] = Homo sapiens, U-937, Table 4, head prints no unit, same values in Table 5 as IC50 nM, read-out: Inhibition of proliferation in U937 cells
[7] = Homo sapiens, U-937, Table 5, U937 cells, read-out: Inhibition of proliferation in U937 cells (IC50 nM)
[8] = Table 4, Acid = carboxylic acid hydrolysis product of the ester
[9] = Table 4, compound as such, Ester for Examples 7 and 9
[10] = Table 5, Acid = carboxylic acid hydrolysis product of the ester
[11] = Table 5, compound as such, Ester for Examples 7 and 9

T2 sequence (Q16539 whole entry): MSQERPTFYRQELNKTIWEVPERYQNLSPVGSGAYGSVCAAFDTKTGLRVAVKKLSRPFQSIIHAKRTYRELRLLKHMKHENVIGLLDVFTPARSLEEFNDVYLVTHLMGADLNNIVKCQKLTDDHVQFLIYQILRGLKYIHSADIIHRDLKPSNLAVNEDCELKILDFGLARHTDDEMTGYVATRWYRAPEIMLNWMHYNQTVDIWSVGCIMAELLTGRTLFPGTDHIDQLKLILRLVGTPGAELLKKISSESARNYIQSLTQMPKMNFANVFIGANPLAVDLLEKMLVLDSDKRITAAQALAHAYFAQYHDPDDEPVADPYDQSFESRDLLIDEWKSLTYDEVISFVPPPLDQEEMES

Nc1c(C(=O)c2ccc(F)cc2F)ccc(=O)n1-c1ccc(CCNC2(C(=O)OC3CCCC3)CCCC2)cc1 [Example 3]
IC50 ([1]; Table 2): 10000 nM
Ratio IC50s in HUT 78 to U937 cells ([1]; Table 2): 100
IC50 [2, 4]: 100 nM
potency in monocytic versus non monocytic cell lines (MAPKAP-2 phosphorylation) [2]: 100 times

Nc1c(C(=O)c2ccc(F)cc2F)ccc(=O)n1-c1c(F)cc(OCCC[C@H](N)C(=O)OC2CCCC2)cc1F [Compund III, reference compound]
IC50 ([1]; Table 3): 1 nM
Ratio IC50s in HUT 78 to U937 cells ([1]; Table 3): 1
IC50 [2, 5]: 1 nM

CC(N)(CCCOc1cc(F)c(-n2c(N)c(C(=O)c3ccc(F)cc3F)ccc2=O)c(F)c1)C(=O)OC1CCCC1 (stereo not drawn) [Example 5]
IC50 ([1]; Table 3): 100 nM
Ratio IC50s in HUT 78 to U937 cells ([1]; Table 3): 20
IC50 [2, 5]: 5 nM
macrophage selectivity (MAPKAP-2 phosphorylation, U937 versus HUT 78) ([2]; result in words): macrophage selective

Nc1c(C(=O)c2ccc(F)cc2F)ccc(=O)n1-c1c(F)cccc1F [Compound II, reference compound]
IC50 ([1]; Table 3): 10 nM
Ratio IC50s in HUT 78 to U937 cells ([1]; Table 3): 1
IC50 [2, 5]: 10 nM

CC(C)CC(C)(NCc1ccc(CCC(=O)NO)cc1)C(=O)OC1CCCC1 (racemic) [Example 9, Cyclopentyl N-{4-[3-(hydroxyamino)-3-oxopropyl]benzyl}-2-methyl-D,L-leucinate]
IC50 (U937 cells; [6]): 190 nM
IC50 (U937 cells; [7]): 190 nM
Ratio cell IC50s to enzyme IC50 (U937 cells; Table 4): 0.04
potency in monocytic (U937) versus non monocytic (Hut78) cell lines (proliferation) (U937 cells): 30 times
potency in the cellular (U937 proliferation) assay compared with the parent compound (U937 cells): significantly more potent than the parent compound
IC50 (HUT 78 cells; Homo sapiens, HuT78): 5500 nM
Ratio IC50s in HUT 78 to U937 cells (HUT 78 cells): 30
IC50 [3, 8]: 6240 nM
IC50 [3, 9]: 4900 nM
IC50 [3, 10]: 6240 nM
IC50 [3, 11]: 4900 nM

O=C(CCc1ccccc1)NO [Compound IV, N-Hydroxy-3-phenyl-propionamide, reference compound]
inhibition at 10 µM (U937 cells; Homo sapiens, U-937, Table 4, @ 10 μM): 13%
Ratio cell IC50s to enzyme IC50 (U937 cells; Table 4): >3.85
Inhibition of proliferation in U937 cells (U937 cells; Table 5, @ 10 μM): 13% @ 10 μM
inhibition at 10 µM (HUT 78 cells; Homo sapiens, HuT78, @ 10 μM): 10%
Ratio IC50s in HUT 78 to U937 cells (HUT 78 cells): ~1
IC50 [3, 9]: 2600 nM
IC50 [3, 11]: 2600 nM

O=C(CCc1ccc(CNC2(C(=O)OC3CCCC3)CCCC2)cc1)NO [Example 7, Cyclopentyl 1-({4-[3-(hydroxyamino)-3-oxopropyl]benzyl}amino)cyclopentanecarboxylate]
IC50 (U937 cells; [6]): 180 nM
IC50 (U937 cells; [7]): 180 nM
Ratio cell IC50s to enzyme IC50 (U937 cells; Table 4): 0.043
potency in monocytic (U937) versus non monocytic (Hut78) cell lines (proliferation) (U937 cells): 30 times
potency in the cellular (U937 proliferation) assay compared with the parent compound (U937 cells): significantly more potent than the parent compound
IC50 (HUT 78 cells; Homo sapiens, HuT78): 6200 nM
Ratio IC50s in HUT 78 to U937 cells (HUT 78 cells): 34
hydrolysis by hCE-1 (recombinant hCE-1): hydrolysed by hCE-1
IC50 [3, 8]: 6120 nM
IC50 [3, 9]: 4200 nM
IC50 [3, 10]: 6120 nM
IC50 [3, 11]: 4200 nM

Nc1c(C(=O)c2ccc(F)cc2F)ccc(=O)n1-c1ccccc1 [Compound I, reference compound]
IC50 ([1]; Table 2): 450 nM
Ratio IC50s in HUT 78 to U937 cells ([1]; Table 2): 1.5
IC50 ([2]; Table 1 (biology), U937 cells, read-out: Inhibition of phosphorylation of MAPKAP-2 in U937 cells (IC50)): 300 nM
IC50 [2, 4]: 300 nM
Ratio cell IC50s to enzyme IC50 ([2]; U937 MAPKAP-2 IC50 to P38 enzyme IC50): 6
potency in monocytic versus non monocytic cell lines (MAPKAP-2 phosphorylation) [2]: equipotent
IC50 (p38 MAP Kinase α): 50 nM
